# Assay results from patent US11807644B2 (PMV Pharmaceuticals, Inc., priority 2020, dated 2023).
# Target: T1, recombinant His-tag Y220C p53 DBD protein (Homo sapiens, UniProt P04637, Y220C)
# T1 construct: recombinant His-tag Y220C p53 DBD protein (amino acids #˜94-312)
# Test: In vitro DNA binding activity assay (TR-FRET): binding of His-tag Y220C p53 DBD to biotin-labeled consensus DNA
# Type: biochemical
# Conditions: SC150 = concentration to increase DNA binding by […], His-tag Y220C p53 DBD, biotin-labeled consensus DNA
row,Y220C SC150 (μM),Compound
1,* (* = 0 μM ≤ SC150 < 0.1 μM),"Cc1c[nH]c2ccc(C(=O)NCc3nc(-c4cc5c(N[C@@H]6CCN(C)C[C@@H]6F)cccc5n4CC(F)(F)F)no3)cc12 [Compound 266B, N-{[3-(4-{[(3S,4R)-3-fluoro-1-methylpiperidin-4-yl]amino}-1-(2,2,2-trifluoroethyl)-1H-indol-2-yl)-1,2,4-oxadiazol-5-yl]methyl}-3-methyl-1H-indole-5-carboxamide]"
2,* (* = 0 μM ≤ SC150 < 0.1 μM),"CN1CC[C@@H](Nc2cccc3c2cc(-c2noc(CNC(=O)c4ccc5cc[nH]c5c4)n2)n3CC(F)(F)F)[C@@H](F)C1 [Compound 267B, N-{[3-(4-{[(3S,4R)-3-fluoro-1-methylpiperidin-4-yl]amino}-1-(2,2,2-trifluoroethyl)-1H-indol-2-yl)-1,2,4-oxadiazol-5-yl]methyl}-1H-indole-6-carboxamide]"
3,* (* = 0 μM ≤ SC150 < 0.1 μM),"COCCn1cncc1C(=O)NCc1nc(-c2cc3c(N[C@@H]4CCN(C)C[C@@H]4F)cccc3n2CC(F)(F)F)no1 [Compound 268B, N-{[3-(4-{[(3S,4R)-3-fluoro-1-methylpiperidin-4-yl]amino}-1-(2,2,2-trifluoroethyl)-1H-indol-2-yl)-1,2,4-oxadiazol-5-yl]methyl}-1-(2-methoxyethyl)-1H-imidazole-5-carboxamide]"
4,* (* = 0 μM ≤ SC150 < 0.1 μM),"CC[C@@H]1C[C@H]1C(=O)NCc1nc(-c2cc3c(N[C@@H]4CCN(C)C[C@@H]4F)cccc3n2CC(F)(F)F)no1 [Compound 269B, (1R,2R)-2-ethyl-N-{[3-(4-{[(3S,4R)-3-fluoro-1-methylpiperidin-4-yl]amino}-1-(2,2,2-trifluoroethyl)-1H-indol-2-yl)-1,2,4-oxadiazol-5-yl]methyl}cyclopropane-1-carboxamide]"
5,* (* = 0 μM ≤ SC150 < 0.1 μM),"CN1CC[C@@H](Nc2cccc3c2cc(-c2noc(CNC(=O)c4cncn4C(C)(C)C)n2)n3CC(F)(F)F)[C@@H](F)C1 [Compound 270B, 1-tert-butyl-N-{[3-(4-{[(3S,4R)-3-fluoro-1-methylpiperidin-4-yl]amino}-1-(2,2,2-trifluoroethyl)-1H-indol-2-yl)-1,2,4-oxadiazol-5-yl]methyl}-1H-imidazole-5-carboxamide]"
6,* (* = 0 μM ≤ SC150 < 0.1 μM),"CCN1CC[C@@H](Nc2cccc3c2cc(-c2noc(CNC(=O)c4ccn(CCOC)c4)n2)n3CC(F)(F)F)[C@@H](F)C1 [Compound 272B, N-{[3-(4-{[(3S,4R)-1-ethyl-3-fluoropiperidin-4-yl]amino}-1-(2,2,2-trifluoroethyl)-1H-indol-2-yl)-1,2,4-oxadiazol-5-yl]methyl}-1-(2-methoxyethyl)-1H-pyrrole-3-carboxamide]"
7,* (* = 0 μM ≤ SC150 < 0.1 μM),"CCN1CC[C@H](Nc2cccc3c2cc(-c2noc(CNC(=O)c4ccn(CCOC)c4)n2)n3CC(F)(F)F)[C@H](F)C1 [Compound 273B, N-{[3-(4-{[(3R,4S)-1-ethyl-3-fluoropiperidin-4-yl]amino}-1-(2,2,2-trifluoroethyl)-1H-indol-2-yl)-1,2,4-oxadiazol-5-yl]methyl}-1-(2-methoxyethyl)-1H-pyrrole-3-carboxamide]"
8,* (* = 0 μM ≤ SC150 < 0.1 μM),"Cc1c[nH]c2cc(C(=O)NCc3nc(-c4cc5c(N[C@@H]6CCN(C)C[C@@H]6F)cccc5n4CC(F)(F)F)no3)ccc12 [Compound 274B, N-{[3-(4-{[(3S,4R)-3-fluoro-1-methylpiperidin-4-yl]amino}-1-(2,2,2-trifluoroethyl)-1H-indol-2-yl)-1,2,4-oxadiazol-5-yl]methyl}-3-methyl-1H-indole-6-carboxamide]"
9,** (** = 0.1 μM ≤ SC150 < 0.5 μM),"CN1CC[C@@H](Nc2cccc3c2cc(-c2cc(CNC(=O)c4ccn(C(C)(C)C)c4)cs2)n3CC(F)(F)F)[C@@H](F)C1 [Compound 283B, 1-tert-butyl-N-{[5-(4-{[(3S,4R)-3-fluoro-1-methylpiperidin-4-yl]amino}-1-(2,2,2-trifluoroethyl)-1H-indol-2-yl)thiophen-3-yl]methyl}-1H-pyrrole-3-carboxamide]"
10,** (** = 0.1 μM ≤ SC150 < 0.5 μM),"CN1CC[C@@H](Nc2cccc3c2cc(-c2cc(CNc4ccc(S(C)(=O)=O)cc4)cs2)n3CC(F)(F)F)[C@@H](F)C1 [Compound 284B, N-[(3S,4R)-3-fluoro-1-methylpiperidin-4-yl]-2-(4-{[(4-methanesulfonylphenyl)amino]methyl}thiophen-2-yl)-1-(2,2,2-trifluoroethyl)-1H-indol-4-amine]"
11,** (** = 0.1 μM ≤ SC150 < 0.5 μM),"CN1CC[C@@H](Nc2cccc3c2cc(-c2ccc(CNC(=O)c4cnn(C(C)(C)C)c4)cn2)n3CC(F)(F)F)[C@@H](F)C1 [Compound 285B, 1-tert-butyl-N-{[6-(4-{[(3S,4R)-3-fluoro-1-methylpiperidin-4-yl]amino}-1-(2,2,2-trifluoroethyl)-1H-indol-2-yl)pyridin-3-yl]methyl}-1H-pyrazole-4-carboxamide]"
12,* (* = 0 μM ≤ SC150 < 0.1 μM),"CN1CC[C@@H](Nc2cccc3c2cc(-c2nnc(CNC(=O)c4ccn(C(C)(C)C)c4)s2)n3CC(F)(F)F)[C@@H](F)C1 [Compound 286B, 1-tert-butyl-N-{[5-(4-{[(3S,4R)-3-fluoro-1-methylpiperidin-4-yl]amino}-1-(2,2,2-trifluoroethyl)-1H-indol-2-yl)-1,3,4-thiadiazol-2-yl]methyl}-1H-pyrrole-3-carboxamide]"
13,* (* = 0 μM ≤ SC150 < 0.1 μM),"CN1CC[C@@H](Nc2cccc3c2cc(-c2nnc(CNC(=O)c4ccn(C5(C)CCOCC5)c4)s2)n3CC(F)(F)F)[C@@H](F)C1 [Compound 287B, N-{[5-(4-{[(3S,4R)-3-fluoro-1-methylpiperidin-4-yl]amino}-1-(2,2,2-trifluoroethyl)-1H-indol-2-yl)-1,3,4-thiadiazol-2-yl]methyl}-1-(4-methyloxan-4-yl)-1H-pyrrole-3-carboxamide]"
14,* (* = 0 μM ≤ SC150 < 0.1 μM),"CN1CC[C@@H](Nc2cccc3c2cc(-c2nnc(CNC(=O)c4ccn(C(C)(C)C)c4)o2)n3CC(F)(F)F)[C@@H](F)C1 [Compound 288B, 1-tert-butyl-N-{[5-(4-{[(3S,4R)-3-fluoro-1-methylpiperidin-4-yl]amino}-1-(2,2,2-trifluoroethyl)-1H-indol-2-yl)-1,3,4-oxadiazol-2-yl]methyl}-1H-pyrrole-3-carboxamide]"
15,* (* = 0 μM ≤ SC150 < 0.1 μM),"COCC(C)n1ccc(C(=O)NCc2nc(-c3cc4c(N[C@@H]5CCN(C)C[C@@H]5F)cccc4n3CC(F)(F)F)no2)c1 (stereo partly drawn) [Compound 289B, N-{[3-(4-{[(3S,4R)-3-fluoro-1-methylpiperidin-4-yl]amino}-1-(2,2,2-trifluoroethyl)-1H-indol-2-yl)-1,2,4-oxadiazol-5-yl]methyl}-1-(1-methoxypropan-2-yl)-1H-pyrrole-3-carboxamide]"
16,* (* = 0 μM ≤ SC150 < 0.1 μM),"COCCn1cc(C(=O)NCc2nc(-c3cc4c(N[C@@H]5CCN(C)C[C@@H]5F)cccc4n3CC(F)(F)F)no2)cn1 [Compound 290B, N-{[3-(4-{[(3S,4R)-3-fluoro-1-methylpiperidin-4-yl]amino}-1-(2,2,2-trifluoroethyl)-1H-indol-2-yl)-1,2,4-oxadiazol-5-yl]methyl}-1-(2-methoxyethyl)-1H-pyrazole-4-carboxamide]"
17,* (* = 0 μM ≤ SC150 < 0.1 μM),"CN1CC[C@@H](Nc2cccc3c2cc(-c2noc(CNC(=O)c4cn(C(C)(C)C)cn4)n2)n3CC(F)(F)F)[C@@H](F)C1 [Compound 292B, 1-tert-butyl-N-{[3-(4-{[(3S,4R)-3-fluoro-1-methylpiperidin-4-yl]amino}-1-(2,2,2-trifluoroethyl)-1H-indol-2-yl)-1,2,4-oxadiazol-5-yl]methyl}-1H-imidazole-4-carboxamide]"
18,* (* = 0 μM ≤ SC150 < 0.1 μM),"CCN1CC[C@@H](Nc2cccc3c2cc(-c2noc(CNC(=O)c4ccn(CCF)c4)n2)n3CC(F)(F)F)[C@@H](F)C1 [Compound 293B, N-{[3-(4-{[(3S,4R)-1-ethyl-3-fluoropiperidin-4-yl]amino}-1-(2,2,2-trifluoroethyl)-1H-indol-2-yl)-1,2,4-oxadiazol-5-yl]methyl}-1-(2-fluoroethyl)-1H-pyrrole-3-carboxamide]"
19,* (* = 0 μM ≤ SC150 < 0.1 μM),"CN1CC[C@@H](Nc2cccc3c2cc(-c2noc(CNC(=O)c4cnn(C)c4)n2)n3CC(F)(F)F)[C@@H](F)C1 [Compound 294B, N-{[3-(4-{[(3S,4R)-3-fluoro-1-methylpiperidin-4-yl]amino}-1-(2,2,2-trifluoroethyl)-1H-indol-2-yl)-1,2,4-oxadiazol-5-yl]methyl}-1-methyl-1H-pyrazole-4-carboxamide]"
20,* (* = 0 μM ≤ SC150 < 0.1 μM),"COc1ccc(C(=O)NCc2nc(-c3cc4c(N[C@@H]5CCN(C)C[C@@H]5F)cccc4n3CC(F)(F)F)no2)cc1 [Compound 295B, N-{[3-(4-{[(3S,4R)-3-fluoro-1-methylpiperidin-4-yl]amino}-1-(2,2,2-trifluoroethyl)-1H-indol-2-yl)-1,2,4-oxadiazol-5-yl]methyl}-4-methoxybenzamide]"
21,* (* = 0 μM ≤ SC150 < 0.1 μM),"CN1CC[C@@H](Nc2cccc3c2cc(-c2noc(CNC(=O)c4cnn(C5CC5)c4)n2)n3CC(F)(F)F)[C@@H](F)C1 [Compound 296B, 1-cyclopropyl-N-{[3-(4-{[(3S,4R)-3-fluoro-1-methylpiperidin-4-yl]amino}-1-(2,2,2-trifluoroethyl)-1H-indol-2-yl)-1,2,4-oxadiazol-5-yl]methyl}-1H-pyrazole-4-carboxamide]"
22,* (* = 0 μM ≤ SC150 < 0.1 μM),"COCCn1cnc(C(=O)NCc2nc(-c3cc4c(N[C@@H]5CCN(C)C[C@@H]5F)cccc4n3CC(F)(F)F)no2)c1 [Compound 297B, N-{[3-(4-{[(3S,4R)-3-fluoro-1-methylpiperidin-4-yl]amino}-1-(2,2,2-trifluoroethyl)-1H-indol-2-yl)-1,2,4-oxadiazol-5-yl]methyl}-1-(2-methoxyethyl)-1H-imidazole-4-carboxamide]"
